Measurements as given in patent publication US12281114B2, “NK3 modulators and uses thereof” (Kallyope, Inc., priority 2023, dated 2025).

Tests used:
[1] = biological target: T1, human NK3 (Homo sapiens, UniProt P29371); assay: FLIPR calcium assay in antagonist mode (NKB EC70 challenge); format: cell-based; conditions: stable cell line expressing human recombinant NK3; antagonist mode vs EC70 of NKB agonist
T1 sequence (P29371 1-465): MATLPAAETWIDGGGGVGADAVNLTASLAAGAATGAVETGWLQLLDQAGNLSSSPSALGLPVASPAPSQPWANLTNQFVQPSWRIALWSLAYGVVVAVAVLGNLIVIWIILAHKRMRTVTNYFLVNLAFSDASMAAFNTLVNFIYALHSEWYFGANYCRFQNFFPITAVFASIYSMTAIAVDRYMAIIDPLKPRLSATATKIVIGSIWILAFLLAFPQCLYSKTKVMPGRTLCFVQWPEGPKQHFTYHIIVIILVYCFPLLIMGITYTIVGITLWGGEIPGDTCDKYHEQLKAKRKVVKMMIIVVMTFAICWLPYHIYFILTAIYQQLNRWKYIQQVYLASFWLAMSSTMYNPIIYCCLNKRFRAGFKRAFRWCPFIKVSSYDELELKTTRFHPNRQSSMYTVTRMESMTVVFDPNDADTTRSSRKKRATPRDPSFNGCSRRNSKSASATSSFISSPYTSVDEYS
Method in brief: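 Recombinant human NK3 stable cells loaded with Calcium 6 dye were given compound, read for 10 min, then challenged with NKB at its predetermined EC70 and read 10 min by FLIPR. The second peak minus baseline was normalized to 10 μM and 0 μM antagonist controls, and fitted for IC50 and efficacy.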

[2] = system: acute nitroglycerin (NTG) migraine model in rats; assay: Acute nitroglycerin (NTG) rat migraine model, periorbital von Frey threshold; format: in vivo; conditions: male Sprague Dawley rats, 10 mg/kg NTG i.p., 30 mg/kg test compound, 90 min; 50% periorbital threshold after compound / baseline x 100
Procedure: An acute nitroglycerin (NTG) model was used to assess migraine efficacy in rats (for a review see: Sureda-Gibert, P, Neurobiol Pain. 2022 August-December; 12: 100105). Briefly, male Sprague Dawley rats, 8-weeks old (Charles River Laboratories), were pair-housed in a 12-h light cycle room upon facility arrival and left to acclimate for a minimum of 72 h. Animals were provided standard rodent chow (PicoLab Rodent Diet, 5053) and water ad libitum. Following the acclimation period, rats underwent a single behavioral testing apparatus acclimation. Rats were left to freely move and habituate for a minimum of 20 min. The testing apparatus used was a Multiple Configuration Animal Enclosure (Ugo Basile, 37000-007) placed on a self-standing table with a mesh-perforated bottom.
Periorbital threshold was measured using the up-down method (Chaplan, S. R., et al., J Neurosci Methods, 1994 July; 53(1):55-63), in which von Frey filaments (Ugo Basile, 37450-275) of increasing forces (0.4-15 g) were applied to the periorbital region until an application of a filament evoked a response, typically indicated by a rapid withdrawal response or paw swipe to the periorbital region. Once a response was observed, four more readings were obtained following the first change of direction to determine the withdrawal threshold close to 50%. The 50% threshold was then calculated using the following formula: 50% threshold (g)=10^(X+kd)/10^4, where X=the value, in log units, of the final von Frey filament, k=tabular value for the response pattern, and d=the average increment, in log units, between von Frey filaments.
Following acclimation, a baseline assessment was performed, and rats were then randomized into balanced treatment groups using baseline periorbital threshold measurements. On the day of the experiment, rats (n=12/group) were weighed and administered 10 mg/kg NTG (2 mg/mL in 0.9% saline; Henry Schein, NDC-0517-4810-25) by intraperitoneal injection, immediately followed by their assigned compound treatment of either vehicle (0.25% methyl cellulose, 5% Tween 80, 0.02% sodium dodecyl sulfate (SDS) in Hanks' Buffered Salt Solution with Ca^2+ and Mg^2+), 10 mg/kg sumatriptan as a positive control (2 mg/mL in vehicle; Ambeed, A260899-1g) or 30 mg/kg test compound (10 mg/mL in vehicle).
Approximately 70 min post dosing, animals were placed in the behavioral testing apparatus and allowed to habituate to individual enclosures for a minimum of 20 min prior to von Frey assessment. Von Frey measurements were then recorded at 90 and 120. Upon final measurement, rats were immediately euthanized via CO2 asphyxiation followed by exsanguination. Blood was collected in lithium-heparin serum-separating tubes (BD, 365985) and processed for serum collection. Serum samples were then stored at −80° C.
Migraine efficacy (%) was calculated by dividing the 50% threshold (g) following administration of test compound by the baseline 50% threshold (g) and then multiplying by 100.

[3] = biological target: T2, P-glycoprotein (P-gp) (Homo sapiens, UniProt P08183); assay: P-gp substrate assessment in MDR1-MDCK II cells; format: in vitro ADME; conditions: dog, MDCK-MDR1, pH 7.4
T2 construct: expressed in transfected cells; host or cells: MDR1-MDCK II
T2 sequence (P08183 whole entry): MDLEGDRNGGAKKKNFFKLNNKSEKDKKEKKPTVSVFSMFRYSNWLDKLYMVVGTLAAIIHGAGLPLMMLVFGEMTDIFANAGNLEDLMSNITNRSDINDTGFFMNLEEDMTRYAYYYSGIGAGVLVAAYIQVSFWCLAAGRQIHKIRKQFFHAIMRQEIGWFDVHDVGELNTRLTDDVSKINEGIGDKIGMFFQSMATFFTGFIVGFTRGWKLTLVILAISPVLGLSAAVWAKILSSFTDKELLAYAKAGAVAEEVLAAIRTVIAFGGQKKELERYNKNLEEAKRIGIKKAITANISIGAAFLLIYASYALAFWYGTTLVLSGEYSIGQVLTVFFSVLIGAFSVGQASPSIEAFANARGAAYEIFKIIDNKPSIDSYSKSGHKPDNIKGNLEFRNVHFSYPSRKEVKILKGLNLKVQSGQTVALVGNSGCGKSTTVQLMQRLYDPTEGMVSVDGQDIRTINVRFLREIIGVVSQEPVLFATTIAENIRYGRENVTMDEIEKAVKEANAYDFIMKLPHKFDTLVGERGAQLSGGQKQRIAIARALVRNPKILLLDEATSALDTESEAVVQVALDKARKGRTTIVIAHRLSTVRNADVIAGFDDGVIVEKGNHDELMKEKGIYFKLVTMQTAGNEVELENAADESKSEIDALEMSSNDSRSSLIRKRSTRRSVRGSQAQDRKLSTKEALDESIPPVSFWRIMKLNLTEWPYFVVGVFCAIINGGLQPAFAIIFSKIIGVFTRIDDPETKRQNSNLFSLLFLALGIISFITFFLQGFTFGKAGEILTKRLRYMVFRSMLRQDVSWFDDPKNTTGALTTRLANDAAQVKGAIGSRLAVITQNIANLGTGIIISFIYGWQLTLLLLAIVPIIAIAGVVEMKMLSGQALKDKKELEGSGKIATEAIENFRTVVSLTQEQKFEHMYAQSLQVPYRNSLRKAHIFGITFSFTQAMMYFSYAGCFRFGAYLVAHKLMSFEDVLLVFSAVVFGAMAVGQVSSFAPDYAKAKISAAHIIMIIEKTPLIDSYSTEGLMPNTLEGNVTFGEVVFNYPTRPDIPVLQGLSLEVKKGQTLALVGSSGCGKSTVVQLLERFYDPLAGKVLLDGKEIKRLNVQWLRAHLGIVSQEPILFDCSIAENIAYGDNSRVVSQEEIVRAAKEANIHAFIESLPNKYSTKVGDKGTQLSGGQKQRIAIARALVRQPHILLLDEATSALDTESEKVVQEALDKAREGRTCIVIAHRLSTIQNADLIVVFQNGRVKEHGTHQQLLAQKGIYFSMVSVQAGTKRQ
Procedure: MDR1-MDCK II from passage 5-35 were used for P-gp substrate assessment studies. Briefly, test compounds were diluted with transport buffer (HBSS with 10 mM HEPES, pH 7.4) from stock solution to a concentration of 2.00 μM (DMSO<1%) and applied to the apical or basolateral side of the cell monolayer. […] Compounds were quantified by LC/MS/MS analysis based on the peak area ratio of analyte/internal standard. The efflux ratio of each compound was determined according to the following equation: Efflux Ratio=Papp (BA)/Papp (AB).

Cc1nn(C)cc1-c1ccccc1-c1nc2cc(C(=O)N[C@@H]3CO[C@H]4[C@@H]3OC[C@H]4O)ccn2c1Cl [Compound 7, 3-chloro-2-(2-(1,3-dimethyl-1H-pyrazol-4-yl)phenyl)-N-((3R,3aR,6R,6aR)-6-hydroxyhexahydrofuro[3,2-b]furan-3-yl)imidazo[1,2-a]pyridine-7-carboxamide]
IC50 [1]: 1.21 nM | Efficacy (%) [2]: 81% | efflux ratio at 150 min, 2 μM [3]: 32.7

Cn1cc(-c2cccc(F)c2-c2nc3cc(C(=O)N[C@]45CC[C@](CO)(C4)OC5)ccn3c2Cl)c(F)n1 (single isomer, unassigned; second eluting) [Compound 920, 3-chloro-2-(2-fluoro-6-(3-fluoro-1-methyl-1H-pyrazol-4-yl)phenyl)-N-(1-(hydroxymethyl)-2-oxabicyclo[2.2.1]heptan-4-yl)imidazo[1,2-a]pyridine-7-carboxamide, second eluting enantiomer]
IC50 [1]: 1.06 nM | Efficacy (%) [2]: 100%

Cc1nn(C)cc1-c1cc(F)ccc1-c1nc2cc(C(=O)N[C@@H]3CO[C@H]4[C@@H]3OC[C@H]4O)ccn2c1Cl [Compound 16, 3-chloro-2-(2-(1,3-dimethyl-1H-pyrazol-4-yl)-4-fluorophenyl)-N-((3R,3aR,6R,6aR)-6-hydroxyhexahydrofuro[3,2-b]furan-3-yl)imidazo[1,2-a]pyridine-7-carboxamide]
Efficacy (%) [2]: 82%

Cn1cc(-c2cccc(F)c2-c2nc3cc(C(=O)N4CCC5(CC4)CC(C)(O)C5)ccn3c2Cl)cn1 [Compound 915, (3-chloro-2-(2-fluoro-6-(1-methyl-1H-pyrazol-4-yl)phenyl)imidazo[1,2-a]pyridin-7-yl)(2-hydroxy-2-methyl-7-azaspiro[3.5]nonan-7-yl)methanone]
IC50 [1]: 4.22 nM | Efficacy (%) [2]: 92%

Cn1cc(-c2cccc(F)c2-c2nc3cc(C(=O)NC45COC(C)(C4)C5)ccn3c2C#N)c(F)n1 [Compound 845, 3-cyano-2-(2-fluoro-6-(3-fluoro-1-methyl-1H-pyrazol-4-yl)phenyl)-N-(1-methyl-2-oxabicyclo[2.1.1]hexan-4-yl)imidazo[1,2-a]pyridine-7-carboxamide]
IC50 [1]: 2.61 nM | Efficacy (%) [2]: 92%

Cc1nn(C)cc1-c1cc(F)cc(F)c1-c1nc2cc(C(=O)N[C@@H]3CO[C@H]4[C@@H]3OC[C@H]4O)ccn2c1Cl [Compound 787, 3-chloro-2-(2-(1,3-dimethyl-1H-pyrazol-4-yl)-4,6-difluorophenyl)-N-((3R,3aR,6R,6aR)-6-hydroxyhexahydrofuro[3,2-b]furan-3-yl)imidazo[1,2-a]pyridine-7-carboxamide]
IC50 [1]: 1.51 nM | Efficacy (%) [2]: 70%

Cn1cc(-c2cccc(F)c2-c2nc3cc(C(=O)N[C@H]4CC5(C4)C[C@](C)(O)C5)ccn3c2Cl)c(F)n1 (stereo partly drawn) [Compound 929, trans 3-chloro-2-(2-fluoro-6-(3-fluoro-1-methyl-1H-pyrazol-4-yl)phenyl)-N-(6-hydroxy-6-methylspiro[3.3]heptan-2-yl)imidazo[1,2-a]pyridine-7-carboxamide]
IC50 [1]: 2.07 nM

Cn1cc(-c2cccc(F)c2-c2nc3cc(C(=O)N[C@H]4CC[C@](C)(O)CC4)ccn3c2Cl)c(F)n1 [Compound 917]
IC50 [1]: 0.67 nM

Cc1c(-c2ccccc2-c2cn(C)nc2C(F)(F)F)nc2cc(C(=O)N[C@H]3CO[C@H]4[C@@H]3OC[C@H]4O)ccn12 [Compound 784]
IC50 [1]: 6.21 nM

Cc1nn(C)cc1-c1ccccc1-c1nc2cc(C(=O)NCC34CC(CO)(CO3)C4)ccn2c1Cl [Compound 616]
IC50 [1]: 1.45 nM

Cc1nn(C)cc1-c1ccc(F)cc1-c1nc2cc(C(=O)N3C[C@@H]4C[C@H]3C(=O)N4)ccn2c1Cl [Compound 800]
IC50 [1]: 8.07 nM

Cc1nn(C)cc1-c1cccc(F)c1-c1nc2cc(C(=O)NC3CCNCC3)ccn2c1Cl [Compound 705]
IC50 [1]: 4.97 nM

Cn1cc(-c2cccc(F)c2-c2nc3cc(C(=O)N[C@@H]4CC[C@@H](CO)OC4)ccn3c2Cl)c(F)n1 [Compound 837]
IC50 [1]: 1.01 nM

Cc1nn(C)cc1-c1ccccc1-c1nc2cc(C(=O)N[C@@H]3CO[C@H]4[C@@H]3OC[C@H]4O)ccn2c1C [Compound 425]
IC50 [1]: 3.16 nM

Cc1nn(C)cc1-c1ccccc1-c1nc2cc(C(=O)N[C@H]3CO[C@H]4[C@@H]3OC[C@@H]4N)ccn2c1Cl [Compound 617]
IC50 [1]: 3.18 nM

Cc1nn(C)cc1-c1ccccc1-c1nc2cc(C(=O)N[C@@H]3CO[C@H]4[C@@H]3OC[C@@H]4O)ccn2c1Cl [Compound 473]
IC50 [1]: 2.26 nM

Cc1nn(C)cc1-c1cccc(F)c1-c1nc2cc(C(=O)N3CCN(C(CO)CO)CC3)ccn2c1Cl [Compound 796]
IC50 [1]: 4.11 nM

Cc1nn(C)cc1-c1cccc(F)c1-c1nc2cc(C(=O)N[C@@H]3CO[C@H]4[C@@H]3OC[C@H]4O)ccn2c1Cl [Compound 470]
IC50 [1]: 1.41 nM
